Like-named read-outs stand apart in the source and are kept apart here.
Columns and labels:
Format in all cases: cell-based, Pseudomonas aeruginosa
[1] = tested on: carbapenem-resistant P. aeruginosa isolate PA19
Method: (§1) Such resensitization may be determined by combining the present lysins or lysin-AMP polypeptide constructs with an antibiotic in a checkerboard assay as described herein. Antibiotic-resistant bacteria, such as carbapenem-resistant P. aeruginosa, are added to the lysin or lysin-AMP polypeptide construct combination. […] See Clinical and Laboratory Standards Institute (CLSI), CLSI. […] M100 Performance Standards for Antimicrobial Susceptibility Testing; 29th Edition. Clinical and Laboratory Standards Institute, Wayne, Pa.
(§2) Up to seven carbapenem-resistant isolates were assessed. […] See Clinical and Laboratory Standards Institute (CLSI), CLSI. […] M100 Performance Standards for Antimicrobial Susceptibility Testing; 29th Edition. Clinical and Laboratory Standards Institute, Wayne, Pa.

[2] = tested on: carbapenem-resistant P. aeruginosa isolate PA20
Method: as §1, §2

[3] = tested on: carbapenem-resistant P. aeruginosa isolate PA21
Method: as §1, §2

[4] = tested on: carbapenem-resistant P. aeruginosa isolate PA22
Method: as §1, §2

[5] = tested on: carbapenem-resistant P. aeruginosa isolate PA23
Method: as §1, §2

[6] = tested on: carbapenem-resistant P. aeruginosa isolate PA24
Method: as §1, §2

[7] = tested on: carbapenem-resistant isolate WC-452
Method: as §1, §2

| Structure (SMILES) | carbapenem susceptibility category, Alone [1] | carbapenem MIC, Combination ([1]; in combination with GN121) | carbapenem MIC, Combination ([1]; in combination with GN123) | carbapenem susceptibility category, Combination ([1]; in combination with GN123) | carbapenem susceptibility category, Alone [2] | carbapenem MIC, Combination ([2]; in combination with GN121) | carbapenem MIC, Combination ([2]; in combination with GN123) | carbapenem susceptibility category, Combination ([2]; in combination with GN123) | carbapenem susceptibility category, Alone [3] | carbapenem MIC, Combination ([3]; in combination with GN121) | carbapenem MIC, Combination ([3]; in combination with GN123) | carbapenem susceptibility category, Combination ([3]; in combination with GN123) | carbapenem susceptibility category, Alone [4] | carbapenem MIC, Combination ([4]; in combination with GN121) | carbapenem MIC, Combination ([4]; in combination with GN123) | carbapenem susceptibility category, Combination ([4]; in combination with GN123) | carbapenem susceptibility category, Alone [5] | carbapenem MIC, Combination ([5]; in combination with GN123) | carbapenem susceptibility category, Combination ([5]; in combination with GN123) | carbapenem susceptibility category, Alone [6] | other results |
| --- | --- | --- | --- | --- | --- | --- | --- | --- | --- | --- | --- | --- | --- | --- | --- | --- | --- | --- | --- | --- | --- |
| C[C@@H](O)[C@H]1C(=O)N2C(C(=O)O)=C(S[C@@H]3CN[C@H](C(=O)N(C)C)C3)[C@H](C)[C@H]12 [MEROPENEM, meropenem] | R ((R) = resistant) | 1 µg/mL | 0.5 µg/mL | S ((S) = sensitive) | R ((R) = resistant) | 1 µg/mL | 0.5 µg/mL | S ((S) = sensitive) | R ((R) = resistant) | 2 µg/mL | 1 µg/mL | S ((S) = sensitive) | R ((R) = resistant) | 1 µg/mL | 1 µg/mL | S ((S) = sensitive) | R ((R) = resistant) | 0.5 µg/mL | S ((S) = sensitive) | R ((R) = resistant) | carbapenem MIC, Combination ([5]; in combination with GN121): 2 µg/mL; carbapenem MIC, Combination ([6]; in combination with GN121): 1 µg/mL; carbapenem MIC, Combination ([6]; in combination with GN123): 2 µg/mL; carbapenem susceptibility category, Combination ([6]; in combination with GN123): S ((S) = sensitive); carbapenem susceptibility category, Alone [7]: R ((R) = resistant); carbapenem MIC, Combination ([7]; in combination with GN121): 1 µg/mL; carbapenem MIC, Combination ([7]; in combination with GN123): 1 µg/mL; carbapenem susceptibility category, Combination ([7]; in combination with GN123): S ((S) = sensitive) |
| C[C@@H](O)[C@H]1C(=O)N2C(C(=O)O)=C(SCCN=CN)C[C@H]12 [imipenem] | R ((R) = resistant) | 1 µg/mL | 0.5 µg/mL | S ((S) = sensitive) | R ((R) = resistant) | 0.5 µg/mL | 1 µg/mL | S ((S) = sensitive) | R ((R) = resistant) | 1 µg/mL | 0.5 µg/mL | S ((S) = sensitive) | R ((R) = resistant) | 2 µg/mL | 2 µg/mL | S ((S) = sensitive) | R ((R) = resistant) | 0.25 µg/mL | S ((S) = sensitive) | R ((R) = resistant) | carbapenem susceptibility category, Combination ([1]; in combination with GN121): S ((S) = sensitive); carbapenem susceptibility category, Combination ([2]; in combination with GN121): S ((S) = sensitive); carbapenem susceptibility category, Combination ([3]; in combination with GN121): S ((S) = sensitive); carbapenem susceptibility category, Combination ([4]; in combination with GN121): S ((S) = sensitive); MIC, Alone ([5]; agent alone (carbapenem or lysin)): 16 µg/mL; carbapenem susceptibility category, Combination ([5]; in combination with GN121): S ((S) = sensitive); carbapenem MIC, Combination ([6]; in combination with GN121): 1 µg/mL; carbapenem susceptibility category, Combination ([6]; in combination with GN121): S ((S) = sensitive); carbapenem MIC, Combination ([6]; in combination with GN123): 2 µg/mL; carbapenem susceptibility category, Combination ([6]; in combination with GN123): S ((S) = sensitive); carbapenem susceptibility category, Alone [7]: R ((R) = resistant); carbapenem MIC, Combination ([7]; in combination with GN123): 1 µg/mL; carbapenem susceptibility category, Combination ([7]; in combination with GN123): S ((S) = sensitive) |
